Assay results: publication PMC4747383, “Design of a peptidic inhibitor that targets the dimer interface of a prototypic galectin” (Oncotarget, 2015)
Entries after “also recorded” stand apart in the source; their conditions may differ. No end group written: not given here.

Assays:
recombinant hGal-7 = test: Disruption of hGal-7 homodimers, native gel electrophoresis/Western blot; type: biochemical, human; conditions: for disruption of hGal-7 homodimers (in words): 0.5 μM recombinant hGal-7, 20 mM potassium phosphate pH 7.1, 1 h at 4°C
Source text: To measure the ability of the peptides to disrupt the formation of hGal-7 dimers, we used mild denaturing native gel electrophoresis, a commonly used approach to visualize monomer-dimer equilibrium (Fig. 1A and Supplementary Fig. S1). […] This specificity at disrupting hGal-7 dimer formation is provided by distinct three-dimensional arrangements between otherwise very similar galectin homologues. Indeed, while all monomeric galectins reveal identical topologies, dimer formation in hGal-7 proceeds through a “back-to-back” topology of the monomers while other galectins, including hGal-1 and hGal-2, adopt a “side-by-side” structural arrangement (Fig. 1B). This structural organization provides additional means to specifically target and disrupt galectin function.
Incubation of the recombinant B. hGal-1 and C. hGal-2 with hGal-7(129–135) was performed in the same potassium phosphate buffer. The effect of hGal-7(129–135) on the monomeric and dimeric forms of hGal-7/hGal-1/hGal-2 was assessed by Western blotting in native conditions with respective antibodies. The hGal-1/hGal-2 films were overexposed. PACAP28–38 was the control peptide used in order to ensure the specificity of hGal-7(129–135). Recombinant hGal-7 (0.5 μM) was also incubated with increasing concentrations of hGal-7(129–135) in 0.1 mM D. lactose or E. LacNac solutions. Results are representative of three independent experiments.
Human Gal-7 cDNA was cloned into pET-22b(+) using NdeI and HindIII restriction enzymes. Human pET-Gal-1 vector was generously donated by Dr. S. Sato (McGill University, QC, Canada). The proteins were produced in E. coli BL21 (DE3) cells at 37°C. Isopropyl β-D-1-thiogalactopyranoside (IPTG) (1 mM) was added to the bacterial culture at OD600nm = 0.6–0.7 and then incubated for 4 h at 37°C to allow protein production. Bacterial pellets were resuspended in lysis buffer (0.7 mg/mL lysozyme, 10 mM Tris pH 8, 100 mM NaCl, 1 mM EDTA, 1 mM DTT and a protease inhibitor cocktail) and then incubated for 1 h at 37°C prior to centrifugation for 30 min at 15,000 × g (4°C). The supernatant was then filtered with 500 mL bottle top filter ([…]) (Corning, New York, NY, USA) and then ran through a lactose-agarose column (Sigma, St. Louis, MO, USA). The protein was eluted in 1 mL fractions with 150 mM lactose solution. Purified fractions were analyzed by SDS-PAGE. The hGal-7 was then concentrated and purified using Centrifugal filter units (Amicon Ultra-15, 10K) (EMD, Millipore, Etobicoke, ON) in 20 mM potassium phosphate at pH 7.1. All subsequent experiments with the recombinant proteins were performed in the same buffer solution unless mentioned otherwise. Brilliant Coomassie blue was purchased from BioRad (Bio-Rad Laboratories, Mississauga, ON, Canada). The recombinant protein hGal-2 was purchased from MyBiosource (San Diego, CA, USA). […]
gaI-7 (0.5 μM) was incubated with increasing concentrations of biotin-labeled hGaI-7129–135 in 20 mM potassium phosphate buffer (pH 7.1) for 60 min at 4°C beforeWestern blot analysis in low SDS-PAGE using an anti-gaI-7 antibody. B. Similar experiments were carried out using recombinant human B. gaI-1 and C. gaI-2. Results are representative of two independent experiments.
(also on this page, place not known: www.impactjournals.com/oncotarget/ Oncotarget, Materials 2015 Supplementary hGaI-7 129–135.)

Jurkat T cells = test: Apoptosis/toxicity of peptide alone on Jurkat T cells; type: cell-based; conditions: for apoptosis induced by peptide alone in Jurkat T cells: 4 h at 37°C, Annexin V/PI two-color flow cytometry, three independent experiments
Method: Apoptosis was measured by flow cytometry using FITC-labeled Annexin V (Biolegend, San Diego, CA, USA) and propidium iodide (PI). Briefly, the corresponding dilutions of recombinant hGal-7 and hGal-7(129–135) peptides were pre-incubated for 1 h at 4°C in serum free RPMI 1640 medium. 2.5 × 10^5 Jurkat cells were then harvested in the same medium and incubated with their corresponding dilutions at 37°C for 4 h. Cells were washed once in PBS and once in binding buffer (0.01 M HEPES, 0.14 M NaCl, 2.5 mM CaCl2, pH 7.4). Cells were then incubated for 15 min with Annexin V in the dark at room temperature. A total of 400 μL of binding buffer containing 0.25 μg/mL propidium iodide was added to the cells before analysis by flow cytometry.
Supplementary Figure S4: Inability of the control peptide (PACAP) to induce apoptosis on Jurkat T cells. Jurkat T cells wee incubated 4 h at 37°C with increasing concentrations of the control peptide PACAP before two-color flow cytometric analysis. On the left histograms, cells in the lower right quadrant are representative of annexin V-positive/PI-negative, or early apoptotic cells. Cells in the upper right quadrant indicate annexin V-positive/PI-positive, or late apoptotic cells. The right histograms show the percentages of annexin V-positive Jurkat T cells obtained by adding the percentages of cells found in the lower and upper right quadrants. Results are representative of three independent experiments. Error bars represent standard deviation.
(also on this page, place not known: www.impactjournals.com/oncotarget/ Oncotarget, Materials 2015 Supplementary) […]

[1] = 0.5 μM recombinant hGal-7, 20 mM potassium phosphate pH 7.1, pre-incubated 1 h at 4°C, native PAGE, Western blot, representative of three independent experiments

Substance | disruption of hGal-7 homodimers (in words) (recombinant hGal-7; native PAGE, Western blot) | toxicity of peptide alone on Jurkat T cells (Jurkat T cells) | apoptosis induced by peptide alone in Jurkat T cells (Jurkat T cells) | apoptosis induced by peptide alone in Jurkat T cells (Jurkat T cells; listed as PACAP) | disruption of hGal-7 homodimers in presence of LacNac (recombinant hGal-7; 0.5 μM hGal-7, 0.1 mM LacNac, representative of three independent experiments) | disruption of hGal-7 homodimers in presence of lactose (recombinant hGal-7; 0.5 μM hGal-7, 0.1 mM lactose, representative of three independent experiments) | lowest concentration giving a consistent decrease of hGal-7 homodimers (recombinant hGal-7; [1]) [µM] | saturation dose for decrease of hGal-7 homodimers (recombinant hGal-7; [1]) [µM]
PACAP(28–38): an inactive fragment of the human Pituitary Adenylate Cyclase-Activating Polypeptide (PACAP) (GKRYKQRVKNK-NH2; ends and bridges not checked; UniProt P18509 159-169, looked up, fragment) | No such effect was observed | did not display any toxicity on Jurkat T cells alone; also recorded: minimal toxicity on the cell line | did not induce apoptosis in Jurkat T cells; also recorded: does not induce apoptosis | Inability |  |  |  | 
H-LDSVRIP-NH2 [hGal-7(129–135), peptide corresponding to hGal-7 segment between residues 129–135] | Disruption of the hGal-7 dimer; also recorded: effective at relatively high concentrations |  | did not induce apoptosis in Jurkat T cells |  | not inhibited by the presence of lactose or LacNac | not inhibited by the presence of lactose | 10 | 100
